Values quoted from earlier work, collected in patent US7799760B2 (Centro de Ingenieria Genetica y Biotecnologia, priority 2001, dated 2010).

Test system: chronic neuropathic diabetic ulcers

Becaplermin
rate of recurrence (in the third month): about 30%
efficacy (multicenter, controlled, randomized clinical trial in the USA, neuropathic foot ulcers with normal arterial blood supply, topical gel): 50%
